Data taken from US9708259B2 (Hoffmann-La Roche Inc., priority 2013, dated 2017).
Changes are numbered by the printed parent chain. Read-outs that look alike come from different tables or passages of the source.

How the values were obtained:
[1] = molecular target: T1, human M1 (Homo sapiens, UniProt P11229); experiment: M1 PAM assay (FLIPR intracellular calcium), human M1; type: cell-based
T1 construct: expressed in transfected cells; host or cells: CHO cells
T1 sequence (P11229 1-460): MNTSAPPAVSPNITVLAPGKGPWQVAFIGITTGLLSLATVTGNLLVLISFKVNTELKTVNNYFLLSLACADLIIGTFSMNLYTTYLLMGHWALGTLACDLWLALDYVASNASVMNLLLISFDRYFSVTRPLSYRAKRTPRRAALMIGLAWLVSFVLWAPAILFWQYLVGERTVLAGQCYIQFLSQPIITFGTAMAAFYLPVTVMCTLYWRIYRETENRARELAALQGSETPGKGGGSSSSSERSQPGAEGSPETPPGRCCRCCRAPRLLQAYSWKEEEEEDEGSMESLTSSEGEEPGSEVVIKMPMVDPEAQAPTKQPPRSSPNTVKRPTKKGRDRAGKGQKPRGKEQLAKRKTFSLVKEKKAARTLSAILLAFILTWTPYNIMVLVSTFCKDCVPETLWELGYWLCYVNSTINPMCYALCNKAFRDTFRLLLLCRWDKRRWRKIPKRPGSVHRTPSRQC
In short: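 CHO cells expressing M1, Fluo-4AM-loaded, in HEPES/probenecid HBSS pH 7.4, 1% DMSO final. Compounds pre-incubated 2 min for agonist activity versus 30 nM acetylcholine control. For PAM activity, acetylcholine EC20 added after the 2 min pre-incubation, then 2 min more before FLIPR intracellular Ca2+ read.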

[2] = molecular target: T2, ratM1 (Rattus norvegicus, UniProt P08482); experiment: M1 PAM assay (FLIPR intracellular calcium), rat M1; type: cell-based
T2 construct: expressed in transfected cells; host or cells: CHO cells (stated generally for the assay, not specifically for rat M1)
T2 sequence (P08482 1-460): T1 sequence (P11229 1-460) with A5V, T254S, P309S, R320K, A337G, I413V

[3] = CHO human M1 cells, FLIPR Ca2+, with EC20 of acetylcholine, first value of the cell, read-out: hM1 EC50
[4] = rat M1, FLIPR Ca2+, second value of the cell, read-out: ratM1 EC50

Row | SMILES | EC50 [1, 3] | EC50 [2, 4] | EC50 [1] | EC50 [2]
1 | Cn1cc(-c2ccc(Cn3nc(C(=O)N[C@H]4CCOC[C@@H]4O)c4c(F)ccc(F)c43)c(F)c2)cn1 [Example 73, 4,7-difluoro-1-(2-fluoro-4-(1-methyl-1H-pyrazol-4-yl)benzyl)-N-((3R,4S)-3-hydroxytetrahydro-2H-pyran-4-yl)-1H-indazole-3-carboxamide] | 65.8 nM | 94.3 nM |  | 
2 | COc1ccc(F)c2c(C(=O)NC3CCOCC3)cn(Cc3ccc(-c4cnn(C)c4)cc3F)c12 [Example 152, 4-fluoro-1-(2-fluoro-4-(1-methyl-1H-pyrazol-4-yl)benzyl)-7-methoxy-N-(tetrahydro-2H-pyran-4-yl)-1H-indole-3-carboxamide] | 260 nM | 609 nM |  | 
3 | COc1ccc(F)c2c(C(=O)N[C@H]3CCOC[C@@H]3O)cn(Cc3ccc(-c4cnn(C)c4)cc3F)c12 [Example 153, 4-fluoro-1-(2-fluoro-4-(1-methyl-1H-pyrazol-4-yl)benzyl)-N-((3R,4S)-3-hydroxytetrahydro-2H-pyran-4-yl)-7-methoxy-1H-indole-3-carboxamide] | 56 nM | 56 nM |  | 
4 | Cn1cc(-c2ccc(Cn3cc(C(=O)NC4CCOCC4O)c4c(F)c(F)c(F)c(F)c43)cc2)cn1 (single isomer, unassigned) [Example 62, 4,5,6,7-Tetrafluoro-N-((3S,4R) or (3R,4S))-3-hydroxytetrahydro-2H-pyran-4-yl)-1-(4-(1-methyl-1H-pyrazol-4-yl)benzyl)-1H-indole-3-carboxamide] | 433 nM | 563 nM |  | 
5 | Cn1cc(-c2ccc(Cn3cc(C(=O)N[C@H]4CCCC[C@@H]4O)c4c(F)c(F)c(F)c(F)c43)cn2)cn1 [Example 27, 4,5,6,7-tetrafluoro-N-((1S,2S)-2-hydroxycyclohexyl)-1-((6-(1-methyl-1H-pyrazol-4-yl)pyridine-3-yl)methyl)-1H-indole-3-carboxamide] | 56 nM | 80.7 nM |  | 
6 | CNC(=O)c1ccc(Cn2cc(C(=O)NC3CCCC3)c3c(F)cccc32)cc1 [Example 113, N-cyclopentyl-4-fluoro-1-[[4-(methylcarbamoyl)phenyl]methyl]indole-3-carboxamide] | 34 nM | 77 nM |  | 
7 | CNC(=O)c1ccc(Cn2cc(C(=O)NC3CC3)c3c(F)cccc32)cc1 [Example 111, N-cyclopropyl-4-fluoro-1-[[4-(methylcarbamoyl)phenyl]methyl]indol-3-carboxamide] | 127 nM | 408 nM |  | 
8 | Cn1cc(-c2ccc(Cn3cc(C(=O)N[C@H]4CCOC[C@@H]4O)c4c(F)ccc(C5CC5)c43)cc2)cn1 [Example 106, 7-cyclopropyl-4-fluoro-N-((3R,4S)-3-hydroxytetrahydro-2H-pyran-4-yl)-1-(4-(1-methyl-1H-pyrazol-4-yl)benzyl)-1H-indole-3-carboxamide] | 189 nM | 187 nM |  | 
9 | COc1ccc(F)c2c(C(=O)N[C@H]3CCOC[C@@H]3O)cn(Cc3ccc(-c4cnn(C)c4)cc3)c12 [Example 150, 4-fluoro-N-((3R,4S)-3-hydroxytetrahydro-2H-pyran-4-yl)-7-methoxy-1-(4-(1-methyl-1H-pyrazol-4-yl)benzyl)-1H-indole-3-carboxamide] | 50 nM | 34 nM |  | 
10 | Cn1cc(-c2ccc(Cn3cc(C(=O)N[C@H]4CCOC[C@@H]4O)c4c(F)cccc43)c(F)c2)cn1 (mixture of isomers) [Example 6, 4-fluoro-1-(2-fluoro-4-(1-methyl-1H-pyrazol-4-yl)benzyl)-N-((3R,4RS)-3-hydroxytetrahydro-2H-pyran-4-yl)-1H-indole-3-carboxamide] | 70 nM | 147 nM |  | 
11 | CCc1ccc(F)c2c(C(=O)NC3CCOCC3)cn(Cc3ccc4c(cnn4C)c3)c12 [Example 128, 7-ethyl-4-fluoro-1-((1-methyl-1H-indazol-5-yl)methyl)-N-(tetrahydro-2H-pyran-4-yl)-1H-indole-3-carboxamide] |  |  | 289 nM | 1240 nM
12 | Cn1cc(-c2ccc(Cn3cc(C(=O)NC4CCCOC4)c4c(F)cccc43)c(F)c2)cn1 (centres unmarked) [Example 19, 4-fluoro-1-(2-fluoro-4-(1-methyl-1H-pyrazol-4-yl)benzyl)-N-(tetrahydro-2H-pyran-3-yl)-1H-indole-3-carboxamide] | 229 nM | 579 nM |  | 
13 | N#Cc1ccc(Cn2cc(C(=O)N[C@H]3CCCC[C@@H]3O)c3c(F)cccc32)cc1 [Example 32, 1-(4-cyanobenzyl)-4-fluoro-N-((1S,2S)-2-hydroxycyclohexyl)-1H-indole-3-carboxamide] |  |  | 105 nM | 223 nM
14 | O=C(N[C@H]1CCCC[C@@H]1O)c1cn(Cc2ccc(-c3cnco3)cc2)c2cccc(F)c12 [Example 137, 4-fluoro-N-((1S,2S)-2-hydroxycyclohexyl)-1-(4-(oxazol-5-yl)benzyl)-1H-indole-3-carboxamide] | 9 nM | 34 nM |  | 
15 | CNC(=O)c1ccc(Cn2cc(C(=O)NC3CCCCC3)c3c(F)cccc32)cc1 [Example 114, N-cyclohexyl-4-fluoro-1-[[4-(methylcarbamoyl)phenyl]methyl]indole-3-carboxamide] | 17 nM | 15 nM |  | 
16 | O=C(N[C@H]1CCCC[C@@H]1O)c1cn(CC2CCN(c3ccncn3)CC2)c2cccc(F)c12 [Example 143, 4-fluoro-N-((1S,2S)-2-hydroxycyclohexyl)-1-((1-(pyrimidin-4-yl)piperidin-4-yl)methyl)-1H-indole-3-carboxamide] | 409 nM | 1070 nM |  | 
17 | CNC(=O)c1ccc(Cn2cc(C(=O)NC3CCOC(C)(C)C3)c3c(F)cccc32)cc1 (centres unmarked) [Example 119, N-(2,2-dimethyloxan-4-yl)-4-fluoro-1-[[4-(methylcarbamoyl)phenyl]methyl]indole-3-carboxamide] | 6 nM | 12 nM |  | 
18 | NC(=O)c1ccc(Cn2cc(C(=O)N[C@H]3CCOC[C@@H]3O)c3c(F)cccc32)cc1 (racemic) [Example 15, 1-(4-carbamoylbenzyl)-4-fluoro-N-((3RS,4SR)-3-hydroxytetrahydro-2H-pyran-4-yl)-1H-indole-3-carboxamide] | 12.4 nM | 9.61 nM |  | 
19 | CNC(=O)c1ccc(Cn2cc(C(=O)NC3CCCC(F)(F)C3)c3c(F)cccc32)cc1F (centres unmarked) [Example 130, N-(3,3-difluorocyclohexyl)-4-fluoro-1-(3-fluoro-4-(methylcarbamoyl)benzyl)-1H-indole-3-carboxamide] | 34 nM | 58 nM |  | 
20 | Cn1cc(-c2ccc(Cn3nc(C(=O)N[C@H]4CCOC[C@@H]4O)c4c(F)cccc43)c(F)c2)cn1 (racemic) [Example 7, 4-fluoro-1-(2-fluoro-4-(1-methyl-1H-pyrazol-4-yl)benzyl)-N-((3RS,4SR)-3-hydroxytetrahydro-2H-pyran-4-yl)-1H-indazole-3-carboxamide] | 70 nM | 147 nM |  | 
21 | Cn1cc(-c2ccc(Cn3cc(C(=O)N[C@H]4CCCC[C@]4(C)O)c4c(F)cccc43)c(F)c2)cn1 (racemic) [Example 18, 4-fluoro-1-(2-fluoro-4-(1-methyl-1H-pyrazol-4-yl)benzyl)-N-((1SR,2SR)-2-hydroxy-2-methylcyclohexyl)-1H-indole-3-carboxamide] | 61.2 nM | 185 nM |  | 
22 | Cc1cn(-c2ccc(Cn3cc(C(=O)NC4CCOCC4)c4c(F)cccc43)cc2)cn1 [Example 67, 4-fluoro-1-(4-(4-methyl-1H-imidazol-1-yl)benzyl)-N-(tetrahydro-2H-pyran-4-yl)-1H-indole-3-carboxamide] | 82.8 nM | 183 nM |  | 
